Patent EP3324923B1, “COMPOSITIONS AND METHODS USING PALYTHINE” (King's College London, priority 2015, dated 2017)

Assays:
[1] = system: HaCaT keratinocytes; assay: CPD DNA lesion formation by IHC-IF; format: cell-based, human; details: 20J/cm^2 SSR; palythine 0.3-10%w/v; immediately post exposure; n=3; p<0.0001
Experimental: HaCat keratinocytes were irradiated with 20J/cm^2 of solar simulated UVR radiation with 0% (PBS alone), 0.3%, 4% or 10% of palythine. The relative formation of the CPD DNA lesion was measured by IHC-IF and the relative fluorescent intensity plotted. The data in figure 11 show protection by palythine against solar simulated UVR induced CPD formation by IHC-IF.
The radiation procedure was carried out as described above. Cells were washed, then fixed in 2 % (v/v) paraformaldehyde with 0.5 % (v/v) Triton X-100 in PBS for 30 mins at 4 °C. DNA was then denatured by incubation in 2 M HCl for 10 mins at 37 °C. Nonspecific sites were blocked using blocking buffer of 20 % (v/v) goat serum and 0.1 % (v/v) triton x-100 in PBS for 30 mins at room temperature. The primary antibody used was Anti-CPD (Clone TDM-2) (Cosmobio, Tokyo, Japan) at 1:1000 in blocking buffer for 1 hr at room temperature. Alexafluor 488 was diluted in blocking buffer (1:200 dilution) and incubated for 1 hr at room temperature and finally DAPI was added for 10 mins. Washing was carried out (3x5 mins) between each step.
All assays were performed on HaCat cells grown as a 70-80 % confluent monolayer in multiwell plates. They were washed three times in PBS and covered with palythine dissolved in PBS at differing concentrations (0, 0.1, 0.3 %, 4 % and 10 % w/v). […]

[2] = system: HaCaT keratinocytes; assay: Cell viability by neutral red uptake assay after irradiation; format: cell-based, human; details: 20J/cm2 of SSR; 0.3 %, 4 % or 10 % (w/v) palythine; 24 hrs later; n=3; p=<0.0001
Experimental: All assays were performed on HaCat cells grown as a 70-80 % confluent monolayer in multiwell plates. They were washed three times in PBS and covered with palythine dissolved in PBS at differing concentrations (0, 0.1, 0.3 %, 4 % and 10 % w/v). The cells were then irradiated with either SSR or UVA radiation (5-20 J/cm^2 or 20 J/cm^2 respectively). After irradiation the palythine solution was removed and the cells washed a further three times and replaced in media or processed immediately depending on the experimental design.
Cell viability was measured 24 hours post irradiation using the neutral red uptake assay. Neutral red solution (4µgml^-1 in growth medium) (Sigma, UK) was added to the cells and they were incubated at 37 °C, 5 % CO2 for 2 hrs. Cells were washed three times in PBS to remove excess neutral red solution and then the destain solution (50 % v/v ethanol, 49 % v/v ddH2O, 1 % v/v glacial acetic acid) was added. Optical density was measured at 540 nm.
HaCaT keratinocytes were untreated, exposed to 20J/cm2 of SSR with PBS alone, 0.3 % (w/v), 4 % (w/v) or 10 % (w/v) of palythine or 10 % (w/v) palythine without exposure to UVR. Cell viability was measured 24 hrs later by the neutral red assay. Columns represent the mean ± SD (n=3).

[3] = Absorbance profile; format: physicochemical; details: Example 14
Experimental: palythine was extracted from the red algae Palmaria decipiens using a methanol extraction (Confirmed by HPLC & LC-MS). The absorbance profile was determined and then the extract was exposed to increasing doses of solar simulated radiation (SSR) from a solar simulator (conforming to COLIPA standards). The absorbance profile was measured to determine photostability. Compositions according to the invention (in this example solutions of palythine) were prepared at different palythine concentrations (0.3% to 10%), as well as controls comprising 0% palythine, and HaCat keratinocytes were irradiated with SSR or UVA radiation through the solutions, which were placed on top of the cells.
Palythine was exposed to increasing doses of solar simulated radiation and absorbance measured. The absorbance spectrum of the palythine was measured between 280-400 nm using a Spectra Max 384 Plus (Molecular Devices; California, USA) spectrophotometer. Referring to figure 18, we show the photostability of palythine after exposure to increasing doses of solar simulated radiation. Palythine (0.0001% w/v palythine extracted from red algae Chondrus yendoi in PBS) was exposed to increasing doses of solar simulated radiation and the absorbance was measured to determine photostability.

absorbing in the UVB and UVA ranges [3]: 290-350 nm
Compound: COC1=C(NCC(=O)O)CC(O)(CO)CC1=N (stereo not drawn) [palythine]
CPD production compared to irradiated control [1]: significant reduction
protection against UVR induced cell death (cell viability) [2]: significant protection
